This is an account of results in paper PMC8506967, “Binding specificity and function of the SWI/SNF subunit SMARCA4 bromodomain interaction with acetylated histone H3K14” (The Journal of Biological Chemistry, 2021).

Ends that are not written are not given here.

One assay has as its target T1, BAZ2B BD (Homo sapiens, UniProt Q9UIF8).
T1 sequence (Q9UIF8 2060-2164 limits assumed): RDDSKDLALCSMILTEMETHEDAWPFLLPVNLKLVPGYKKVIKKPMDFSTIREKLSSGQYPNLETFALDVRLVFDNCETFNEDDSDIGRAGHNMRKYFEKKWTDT
As to the kind of experiment: ITC, BAZ2B bromodomain. The format is binding. Particulars: BAZ2B wt, GST +, 293 or 298 K, 10 mM HEPES, 100 mM NaCl, 2.5% glycerol, pH 7.3. (ITC needs no label: the signal is the heat of the interaction.)

For another assay, the system named is four family VIII BD. The conditions noted are these: cited from earlier work. An excerpt: How SMARCA4 targets, is recruited to, and interacts with chromatin substrates to induce ATP-dependent nucleosome remodeling has been a long-standing question. Recent structures of the SMARCA4 catalytic-core domain in complex with a nucleosome core particle, as well as a nucleosome-bound SWI/SNF complex comprising SMARCA4 and nine auxiliary subunits, provided insights into the mechanism of SWI/SNF remodeling ([25], [26]). But the structural basis underlying SMARCA4 recognition of its histone tail target has remained elusive despite the existence of SMARCA4 structures in the apo state ([1], [27] ...

A further assay has as its system ASH1L-BD. Particulars: cited from earlier work.
Assay [1] concerns Saccharomyces cerevisiae Sth1 (ScSth1) BD. Particulars: cited from earlier work. An excerpt:
How SMARCA4 targets, is recruited to, and interacts with chromatin substrates to induce ATP-dependent nucleosome remodeling has been a long-standing question. Recent structures of the SMARCA4 catalytic-core domain in complex with a nucleosome core particle, as well as a nucleosome-bound SWI/SNF complex comprising SMARCA4 and nine auxiliary subunits, provided insights into the mechanism of SWI/SNF remodeling ([25], [26]). […] Water-mediated hydrogen bonds stabilize the interaction between H3R17 and Tyr1270 on the αC-helix. || We next asked if the SMARCA4-specific residues are also conserved in other family VIII BDs that bind H3K14ac. […] PBRM-1 is an SWI/SNF accessory protein in the PBAF complex that contains six tandem N-terminal BDs ([42]). The second and fourth PBRM-1 BDs (BD(2) and BD(4)) bind H3K14ac ([43], [44]). Due to the low sequence homology outside of the central α A and αB helices ([1]), we aligned the family VIII BDs based on the superposition of their structures and added CeSMARCA4 to the alignm ...

A further assay concerns SMARCA4. The conditions noted are these: C-terminal BD motif; cited from earlier work. An excerpt: SMARCA4/BRG1 is an essential catalytic core subunit of the roughly two-megadalton Switch/Sucrose Nonfermenting (SWI/SNF) multiprotein complex, which uses the energy of ATP hydrolysis to remodel chromatin by perturbing interactions between histone core particles and DNA ([14], [15]). SMARCA4 can remodel nucleosomal substrates by itself in vitro ([16], [17]) and is functionally and structurally conserved among eukaryotes ([14], [18]).

The test system of another assay is HsPBRM-1 BD(5). The conditions noted are these: PBRM-1 BD(5); cited from earlier work. An excerpt: We superimposed each family VIII BD structure onto the CeSMARCA4-BD structure and plotted the deviation for each residue (Fig. 5D and Fig. S2). […] The overall roo ...
Another assay deals with SMARCA2. The conditions noted are these: cited from earlier work. An excerpt:
(§1) We next asked if the SMARCA4-specific residues are also conserved in other family VIII BDs that bind H3K14ac. […] PBRM-1 is an SWI/SNF accessory protein in the PBAF complex that contains six tandem N-terminal BDs ([42]). The second and fourth PBRM-1 BDs (BD(2) and BD(4)) bind H3K14ac ([43], [44]). Due to the low sequence homology outside of the central α A and αB helices ([1]), we aligned the family VIII BDs based on the superposition of their structures and added CeSMARCA4 to the alignm ...

A further assay relates to PBRM-1. Particulars: cited from earlier work.
Text: as §1

A further assay relates to PBRM-1 BD(2) and BD(4). The conditions noted are these: cited from earlier work.
Text: as §1

The next assay deals with T2, human BAZ2B bromodomain (human).
T2 chain: T1 sequence (Q9UIF8 2060-2164 limits assumed)
Kind of assay: ITC.

Assay [2] deals with T3, CeSMARCA4 BD crystallisation construct (residues Lys1176–Glu1296, Phe1287Ser) (C. elegans, UniProt G5EF53 1176-1296, Phe1287Ser).
T3 construct: SWSN-4 (CeSMARCA4), C. elegans, bromodomain, residues Lys1176-Glu1296 with the point mutation Phe1287Ser; pGEX-6P-1 vector with an HRV 3C protease site; also called untagged CeSMARCA4 BD; source: E. coli BL21 (DE3), purified (Glutathione Sepharose, PreScission cleavage, Q Sepharose, Sephacryl S-200); not shown: GST, N-terminal, cleaved
T3 sequence (looked up): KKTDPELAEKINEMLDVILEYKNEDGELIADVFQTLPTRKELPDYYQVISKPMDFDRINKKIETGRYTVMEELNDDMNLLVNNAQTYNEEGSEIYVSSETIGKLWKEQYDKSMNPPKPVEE
Kind of assay: crystal structure; BD incubated with 2:1 M excess H3_(7–20)K14ac peptide at 4 °C, sitting-drop vapor diffusion, 35% PEG smear; 1.29 Å, space group P4_(1)2_(1)2. Particulars: both partners purified.

Assay [3] has as its target T4, CeSMARCA4 GST–BD fusion (C. elegans SMARCA4/SWSN-4 bromodomain, residues D1179–N1289, GST-tagged) (C. elegans, UniProt G5EF53 1179-1289).
T4 construct: SWSN-4 (CeSMARCA4, ortholog of human SMARCA4/BRG1), C. elegans, bromodomain, residues D1179-N1289; Cloned from Bristol N2 cDNA into a pGEX vector; also called GST-CeSMARCA4; CeSMARCA4 BD; source: E. coli BL21 (DE3), purified (Glutathione Sepharose 4B, eluted with reduced glutathione, dialysed); not shown: GST, N-terminal, kept
T4 sequence (looked up): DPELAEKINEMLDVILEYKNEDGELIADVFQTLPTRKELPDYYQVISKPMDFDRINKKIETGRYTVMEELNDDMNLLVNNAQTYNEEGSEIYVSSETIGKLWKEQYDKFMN
As to the kind of experiment: ITC; MicroCal Auto-iTC200, 293 or 298 K, 10 mM HEPES, 100 mM NaCl, 2.5% glycerol, pH 7.3; protein 50–100 μM in the cell, peptide 500–1000 μM in the syringe; single-site binding model. Particulars: both partners purified.

For assay [4], the target named is T5, CeSMARCA4 BD with the GST tag cleaved off (ITC) (C. elegans, UniProt G5EF53 1179-1289).
T5 construct: SWSN-4 (CeSMARCA4), C. elegans, bromodomain; the Asp1179-Asn1289 construct is the one named for ITC; A protease site and cleavage are described only for the crystallisation construct (K1176-E1296, F1287S); also called CeSMARCA4 bromodomain, GST tag removed; source: E. coli BL21 (DE3), purified, GST tag cleaved off; not shown: GST, N-terminal, cleaved
T5 sequence (looked up): T4 sequence (looked up)
The description is as above. Particulars: both partners purified.

Consider `CC(=O)NCCCC[C@H](NC(=O)CNC(=O)CNC(=O)[C@@H](NC(=O)[C@H](CO)NC(=O)[C@H](CCCCN)NC(=O)[C@H](CCCNC(=N)N)NC(=O)[C@H](C)N)[C@@H](C)O)C(=O)N[C@@H](C)C(=O)N1CCC[C@H]1C(=O)N[C@@H](CCCNC(=N)N)C(=O)N[C@@H](CCCCN)C(=O)N[C@@H](CCC(N)=O)C(=O)N[C@@H](CC(C)C)C(=O)O` [H3_7–20K14ac], for which the Kd – broadly, a measure of binding affinity in units of concentration – on BAZ2B BD amounted to 12.1 ± 0.2 µM.

In the case of `O=C(/C=C/N1C[C@H]2C[C@@H]1CN2c1ccccn1)c1ccccc1O` [PFI-3], the “selectivity of chemical probe” value in the assay with four family VIII BD is on record as “selective for four family VIII BD”.

“H3K14ac: lysine 14 acetylation on histone H3 (ARKSTGGKAPRKQL; not fully specified (residue 8); also: K14 acetylation, chain position not given here)”: the H3K14ac binding result in the assay with ASH1L-BD is “unable to bind”; in the assay on HsPBRM-1 BD(5), “cannot bind”; in the assay on PBRM-1 BD(2) and BD(4) it was “bind”. In addition, the “binding of mutated H3 peptide / acetylated mark to ScSth1 BD” value in assay [1] is reported as “binds more promiscuously”. Further, the “selective H3K14ac binding” value (in assay [1]; with SMARCA2; with PBRM-1) was “reported to selectivity bind” each time. Further, the H3K14ac recognition result with SMARCA4 was “capable of recognizing”.

B1: histone H3_(7–20)K14ac peptide (peptide, UniProt P68431 8-21, looked up)
peptide: ARKSTGGK(Ac)APRKQL
notes: histone H3 N-terminal tail, residues 7-20; also called H3K14ac peptide
In the case of B1, the figures for the Kd (with human BAZ2B bromodomain; in assay [3]; in assay [4]) were 12.1 µM, 11.6 ± 0.1 µM and 23.4 ± 0.8 µM, respectively. Besides, the binding result in assay [2] is reported as “binds”.
